This experiment relates to human umbilical vein endothelial cells (HUVEC). Kind of experiment: HUVEC proliferation assay. Format: cell-based. To be noted: Homo sapiens, HUVEC, crude combinatorial amide library; for inhibition at 0.15 µM: Table I screening results, 150 nM; for inhibition at 0.001 µM / inhibition at 0.01 µM: Table II screening results; for inhibition at 0.001 µM: 1 nM; for inhibition at 0.01 µM: 10 nM, read-out: % inhibition @ 10 nM. A digest of the protocol: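 Exponentially growing HUVEC were serum-starved 24 h (F12K + 1% FBS), pre-treated 1 h with compound (0.1% DMSO final), then stimulated with 6 ng/ml VEGF. Proliferation was read 72 h later by MTT reduction (A595). IC50 came from seven 0.5-log concentrations in triplicate; screens gave % inhibition relative to VEGF-only and starved wells.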

Inhibition data for 58 compounds are collected here from patent US6620828B2, “Thiazole compounds and pharmaceutical compositions for inhibiting protein kinases and methods for their use” (Agouron Pharmaceuticals, Inc., priority 1999, dated 2003).

By inhibition is commonly meant the change of the read-out against control, counted positive when it falls.

With `COc1cc(Nc2nc(N)c(-c3nc(-c4cccc(NC(=O)CC56CC7CC8CC(C5)C8(C7)C6)c4)cs3)s2)cc(OC)c1OC` (stereo not drawn), the inhibition at 0.15 µM amounted to 8%.

On to `COc1cc(Nc2nc(N)c(-c3nc(-c4cccc(NC(=O)c5ccc(C(=O)c6ccccc6)cc5)c4)cs3)s2)cc(OC)c1OC`, for which the inhibition at 0.15 µM worked out at 7%.

`COc1cc(Nc2nc(N)c(-c3nc(-c4cccc(NC(=O)c5ccc6c(c5)C(=O)c5ccccc5-6)c4)cs3)s2)cc(OC)c1OC`: the inhibition at 0.15 µM is -4%.

In the case of `COc1cc(Nc2nc(N)c(-c3nc(-c4cccc(NC(=O)CCc5c[nH]c6ccccc56)c4)cs3)s2)cc(OC)c1OC`, the inhibition at 0.15 µM was -4%.

As for `COc1cc(Nc2nc(N)c(-c3nc(-c4cccc(NC(=O)CNC(=O)c5ccccc5)c4)cs3)s2)cc(OC)c1OC`, the inhibition at 0.15 µM was -26%.

For the compound `COc1cc(Nc2nc(N)c(-c3nc(-c4cccc(NC(=O)c5cc6ccccc6[nH]5)c4)cs3)s2)cc(OC)c1OC`, the inhibition at 0.15 µM was determined as 4%.

As to `COc1cc(Nc2nc(N)c(-c3nc(-c4cccc(NC(=O)c5c[nH]c6ccccc56)c4)cs3)s2)cc(OC)c1OC`, the inhibition at 0.15 µM was found to be 20%.

For the compound `COc1cc(Nc2nc(N)c(-c3nc(-c4cccc(NC(=O)Cc5ccc6ccccc6c5)c4)cs3)s2)cc(OC)c1OC`, the inhibition at 0.15 µM is -7%.

For `COc1cc(Nc2nc(N)c(-c3nc(-c4cccc(NC(=O)Cc5cccc6ccccc56)c4)cs3)s2)cc(OC)c1OC`, the inhibition at 0.15 µM came out at 6%.

In the case of `COc1cc(Nc2nc(N)c(-c3nc(-c4cccc(NC(=O)c5ccc6ccccc6c5)c4)cs3)s2)cc(OC)c1OC`, the inhibition at 0.15 µM came to 53%.

For `COc1cc(Nc2nc(N)c(-c3nc(-c4cccc(NC(=O)c5cccc6ccccc56)c4)cs3)s2)cc(OC)c1OC`, the inhibition at 0.15 µM is 22%.

`COc1cc(Nc2nc(N)c(-c3nc(-c4cccc(NC(=O)CCCc5ccccc5)c4)cs3)s2)cc(OC)c1OC`: the inhibition at 0.15 µM is 15%.

For the compound `COc1cc(Nc2nc(N)c(-c3nc(-c4cccc(NC(=O)/C(=C/c5ccccc5)c5ccccc5)c4)cs3)s2)cc(OC)c1OC`, the inhibition at 0.15 µM was 3%.

In the case of `COc1cc(Nc2nc(N)c(-c3nc(-c4cccc(NC(=O)[C@@H]5C[C@H]5c5ccccc5)c4)cs3)s2)cc(OC)c1OC`, the inhibition at 0.15 µM is -4%.

Turning to `COc1cc(Nc2nc(N)c(-c3nc(-c4cccc(NC(=O)CSc5ccncc5)c4)cs3)s2)cc(OC)c1OC`, the inhibition at 0.15 µM was -34%.

As for `COc1cc(Nc2nc(N)c(-c3nc(-c4cccc(NC(=O)C(c5ccccc5)C5CCCC5)c4)cs3)s2)cc(OC)c1OC` (stereo not drawn), the inhibition at 0.15 µM is 3%.

Regarding `CCC(C(=O)Nc1cccc(-c2csc(-c3sc(Nc4cc(OC)c(OC)c(OC)c4)nc3N)n2)c1)c1ccccc1` (stereo not drawn), the inhibition at 0.15 µM amounted to 6%.

In the case of `COc1cc(Nc2nc(N)c(-c3nc(-c4cccc(NC(=O)C5(c6ccccc6)CCCC5)c4)cs3)s2)cc(OC)c1OC`, the inhibition at 0.15 µM is -10%.

In the case of `COc1cc(Nc2nc(N)c(-c3nc(-c4cccc(NC(=O)C5(c6ccccc6)CC5)c4)cs3)s2)cc(OC)c1OC`, the inhibition at 0.15 µM was 11%.

`C=CCCC(=O)Nc1cccc(-c2csc(-c3sc(Nc4cc(OC)c(OC)c(OC)c4)nc3N)n2)c1`: the inhibition at 0.15 µM was 5%.

As for `COc1cc(Nc2nc(N)c(-c3nc(-c4cccc(NC(=O)C5CCc6ccccc6C5)c4)cs3)s2)cc(OC)c1OC` (stereo not drawn), the inhibition at 0.15 µM was 11%.

Take `COc1cc(Nc2nc(N)c(-c3nc(-c4cccc(NC(=O)c5cccs5)c4)cs3)s2)cc(OC)c1OC`: the inhibition at 0.15 µM turned out to be 29%.

For `COc1cc(Nc2nc(N)c(-c3nc(-c4cccc(NC(=O)c5cccc(Oc6ccccc6)c5)c4)cs3)s2)cc(OC)c1OC`, the inhibition at 0.15 µM is -3%.

Take `COc1cc(Nc2nc(N)c(-c3nc(-c4cccc(NC(=O)c5nn(-c6ccccc6)nc5C)c4)cs3)s2)cc(OC)c1OC`: the inhibition at 0.15 µM is 0%.

For `COc1cc(Nc2nc(N)c(-c3nc(-c4cccc(NC(=O)c5ccc6[nH]ccc6c5)c4)cs3)s2)cc(OC)c1OC`, the inhibition at 0.15 µM is 15%.

Regarding `COc1cc(Nc2nc(N)c(-c3nc(-c4cccc(NC(=O)CCN5CCCCC5)c4)cs3)s2)cc(OC)c1OC`, the inhibition at 0.15 µM came to 15%.

For `COc1cc(Nc2nc(N)c(-c3nc(-c4cccc(NC(=O)/C=C/c5c[nH]c6ccccc56)c4)cs3)s2)cc(OC)c1OC`, the inhibition at 0.15 µM was determined as 5%.

`COc1cc(Nc2nc(N)c(-c3nc(-c4cccc(NC(=O)/C=C/c5c[nH]cn5)c4)cs3)s2)cc(OC)c1OC`: the inhibition at 0.15 µM was found to be 2%.

Regarding `COc1cc(Nc2nc(N)c(-c3nc(-c4cccc(NC(=O)c5c(-c6ccccc6)noc5C)c4)cs3)s2)cc(OC)c1OC`, the inhibition at 0.15 µM was 5%.

In the case of `COc1cc(Nc2nc(N)c(-c3nc(-c4cccc(NC(=O)c5ccc(N6N=C(C)CC6=O)cc5)c4)cs3)s2)cc(OC)c1OC`, the inhibition at 0.15 µM worked out at 0%.

With `COc1cc(Nc2nc(N)c(-c3nc(-c4cccc(NC(=O)C(O)(c5ccccc5)c5ccccc5)c4)cs3)s2)cc(OC)c1OC`, the inhibition at 0.15 µM is -8%.

On to `COc1cc(Nc2nc(N)c(-c3nc(-c4cccc(NC(=O)c5cc(C(C)(C)C)cc(C(C)(C)C)c5)c4)cs3)s2)cc(OC)c1OC`, for which the inhibition at 0.15 µM was -12%.

Consider `CNC(=O)Nc1nc(N)c(-c2nc(-c3cccc(NC(=O)CC4CC5CCC4C5)c3)cs2)s1` (stereo not drawn), for which the inhibition at 0.001 µM came to 0% and the inhibition at 0.01 µM was found to be 93%.

Consider `CNC(=O)Nc1nc(N)c(-c2nc(-c3cccc(NC(=O)CCN4CCCCC4)c3)cs2)s1`, for which the inhibition at 0.001 µM worked out at 1% and the inhibition at 0.01 µM is -26%.

Regarding `CNC(=O)Nc1nc(N)c(-c2nc(-c3cccc(NC(=O)CCC(=O)N4CCCC4)c3)cs2)s1`, the inhibition at 0.001 µM was found to be 6% and the inhibition at 0.01 µM is -10%.

As for `CCc1ccccc1C(=O)Nc1cccc(-c2csc(-c3sc(NC(=O)NC)nc3N)n2)c1`, the inhibition at 0.001 µM is 0% and the inhibition at 0.01 µM turned out to be 106%.

In the case of `CNC(=O)Nc1nc(N)c(-c2nc(-c3cccc(NC(=O)Cn4ccc5ccccc54)c3)cs2)s1`, the inhibition at 0.001 µM worked out at 4% and the inhibition at 0.01 µM is -15%.

Regarding `CNC(=O)Nc1nc(N)c(-c2nc(-c3cccc(NC(=O)C4=CCCN(C)C4)c3)cs2)s1`, the inhibition at 0.001 µM stood at 2% and the inhibition at 0.01 µM was found to be 43%.

`CNC(=O)Nc1nc(N)c(-c2nc(-c3cccc(NC(=O)C4CCCN4C(C)=O)c3)cs2)s1` (stereo not drawn): the inhibition at 0.001 µM amounted to 3% and the inhibition at 0.01 µM came out at 27%.

Take `CNC(=O)Nc1nc(N)c(-c2nc(-c3cccc(NC(=O)/C=C/C4C[C@H]5C=C[C@@H]4C5)c3)cs2)s1` (stereo partly drawn): the inhibition at 0.001 µM is 11% and the inhibition at 0.01 µM amounted to 50%.

`CCC(C(=O)Nc1cccc(-c2csc(-c3sc(NC(=O)NC)nc3N)n2)c1)c1ccccc1C` (stereo not drawn): the inhibition at 0.001 µM is -8% and the inhibition at 0.01 µM stood at 9%.

For the compound `CNC(=O)Nc1nc(N)c(-c2nc(-c3cccc(NC(=O)c4ccc(C(C)(C)C)o4)c3)cs2)s1`, the inhibition at 0.001 µM was found to be 2% and the inhibition at 0.01 µM turned out to be 69%.

Regarding `CNC(=O)Nc1nc(N)c(-c2nc(-c3cccc(NC(=O)/C=C(\C)c4ccccc4C)c3)cs2)s1`, the inhibition at 0.001 µM is -2% and the inhibition at 0.01 µM is 20%.

In the case of `CNC(=O)Nc1nc(N)c(-c2nc(-c3cccc(NC(=O)c4ccc(C(C)=O)s4)c3)cs2)s1`, the inhibition at 0.001 µM is 49% and the inhibition at 0.01 µM was 97%.

As for `CNC(=O)Nc1nc(N)c(-c2nc(-c3cccc(NC(=O)C(C)ON=C(C)C)c3)cs2)s1` (stereo not drawn), the inhibition at 0.001 µM is 6% and the inhibition at 0.01 µM is -7%.

As to `CNC(=O)Nc1nc(N)c(-c2nc(-c3cccc(NC(=O)/C=C/C(=O)NCC4CC4)c3)cs2)s1`, the inhibition at 0.001 µM is 10% and the inhibition at 0.01 µM came to 1%.

For `CNC(=O)Nc1nc(N)c(-c2nc(-c3cccc(NC(=O)c4cc(OC)ccc4C#N)c3)cs2)s1`, the inhibition at 0.001 µM was -18% and the inhibition at 0.01 µM was -1%.

With `CNC(=O)Nc1nc(N)c(-c2nc(-c3cccc(NC(=O)c4cc(C)cc(=O)o4)c3)cs2)s1`, the inhibition at 0.001 µM came out at 5% and the inhibition at 0.01 µM was 62%.

Regarding `CNC(=O)Nc1nc(N)c(-c2nc(-c3cccc(NC(=O)Cc4cn(C)cn4)c3)cs2)s1`, the inhibition at 0.001 µM stood at 34% and the inhibition at 0.01 µM came out at 42%.

As for `CNC(=O)Nc1nc(N)c(-c2nc(-c3cccc(NC(=O)CC(C)(C)NC(C)=O)c3)cs2)s1`, the inhibition at 0.001 µM amounted to 4% and the inhibition at 0.01 µM was -11%.

As for `CCO/C(C)=C/C(=O)Nc1cccc(-c2csc(-c3sc(NC(=O)NC)nc3N)n2)c1`, the inhibition at 0.001 µM came to 7% and the inhibition at 0.01 µM turned out to be 47%.

For the compound `CNC(=O)Nc1nc(N)c(-c2nc(-c3cccc(NC(=O)[C@@H]4C[C@H](C)[C@H](C)[C@@H]4C)c3)cs2)s1`, the inhibition at 0.001 µM is -11% and the inhibition at 0.01 µM was -21%.

On to `C/C=C/C(=O)Nc1cccc(-c2csc(-c3sc(NC(=O)NC)nc3N)n2)c1`, for which the inhibition at 0.001 µM was -1% and the inhibition at 0.01 µM is -7%.

As for `CNC(=O)Nc1nc(N)c(-c2nc(-c3cccc(NC(=O)CC4=CCCCC4)c3)cs2)s1`, the inhibition at 0.001 µM turned out to be 29% and the inhibition at 0.01 µM came out at 82%.

For `CNC(=O)Nc1nc(N)c(-c2nc(-c3cccc(NC(=O)C(=O)C4=CCCCC4)c3)cs2)s1`, the inhibition at 0.001 µM was 17% and the inhibition at 0.01 µM was 19%.

With `CNC(=O)Nc1nc(N)c(-c2nc(-c3cccc(NC(=O)C4CNC(=O)N4)c3)cs2)s1` (stereo not drawn), the inhibition at 0.001 µM worked out at 11% and the inhibition at 0.01 µM came out at 18%.

Consider `CNC(=O)Nc1nc(N)c(-c2nc(-c3cccc(NC(=O)C4CC4C)c3)cs2)s1` (stereo not drawn), for which the inhibition at 0.001 µM is -12% and the inhibition at 0.01 µM worked out at 0%.

Turning to `CNC(=O)Nc1nc(N)c(-c2nc(-c3cccc(NC(=O)c4cc(F)ccc4C)c3)cs2)s1`, the inhibition at 0.001 µM was -1% and the inhibition at 0.01 µM was found to be 78%.
